Six molecules from EPA's ToxValDB 9.5 can be followed below.

Series [1] has as its system Typhlodromus pyri. The series can be described thus: LR50; higher = less toxic. Conditions: not reported; mortality.
The next series has as its system Tagia sp. Conditions: acute, mortality.
The test system of series [2] is Typhlodromus pyri. The note with it: not reported; mortality.
For series [3] the following is noted: reproduction developmental.
Series [4] concerns Aphidius rhopalosiphi. The note with it: not reported; mortality.
A further series deals with Oncorhynchus mykiss. Conditions: for LC50: acute, duration: 96 hours, mortality.
The subject of another series is Canidae. The note with it: oral.
The test system of the next series is Anas platyrhynchos. The note with it: oral.
For a further series, the system named is Neomysis kadiakensis. Conditions: acute; duration: 96 hours; mortality.
In a further series the test system is Daphnia magna. Conditions: chronic/long-term; duration: 21 days; reproduction.
For a further series, the system named is Apis mellifera. Conditions: acute, mortality.
A further series has as its system Coturnix japonica. The note with it: acute; oral; mortality.
Another series relates to Homo sapiens. The note with it: clinical; oral; M; clinical signs.
The next series deals with Macaca mulatta. The note with it: chronic; duration: 1 years; oral; gavage; M/F; clinical signs.
The next series relates to Bovidae. The note with it: subchronic; duration: 30 days; oral; gavage; histopathology: neoplastic.
Another series relates to Anatidae. Conditions: subchronic; duration: 7 weeks; body weight.
A further series deals with Oryctolagus sp. The note with it: subchronic; oral; diet; F; clinical chemistry.
The subject of the next series is Meleagris sp. The note with it: subchronic; duration: 5 weeks; clinical signs.
In a further series the test system is Ictalurus punctatus. The note with it: not reported; mortality.
In series [5] the test system is Aphidius rhopalosiphi. The series can be described thus: LR50; higher = less toxic. Conditions: not reported; mortality.

≈ marks a conversion by molar mass, not a printed value. Some results are limits rather than exact numbers.

As a reminder, the NOAEL is the highest dose or exposure tested at which no adverse effect was seen. Consider `CC1=CC1` [1-Methylcyclopropene], for which the LR50 in the series with Typhlodromus pyri [1] was > 10 ppm. The LD50 with Tagia sp. is > 4.41 ppm; with Rattus norvegicus (acute, oral, mortality), > 235 mg/kg-day; in the series on Colinus virginianus (acute, oral, mortality) it was > 81 mg/kg-day. In addition, the LEL in the series on Typhlodromus pyri [2] and with Aphidius rhopalosiphi [4] was 10 mg/kg each time. Also, the LC50 in the series on Rattus norvegicus (acute, inhalation, mortality) is > 2.5 µg/mL; in the series on Oncorhynchus mykiss, > 0.966 µg/mL. Further, the NOAEL in the series on Rattus norvegicus (reproduction developmental) was 543 mg/kg-day; in the series on Rattus norvegicus (reproduction developmental, inhalation), 6.5 mg/kg-day; in the series on Rattus norvegicus (reproduction developmental, oral, diet, body weight), 3.8 mg/kg-day; with Rattus norvegicus (short-term, duration: 3 weeks, inhalation, M), 68 mg/kg-day; in the series with Rattus norvegicus (subchronic, duration: 90 days, inhalation, M, hematological), 9 mg/kg-day; in series [3] it was 22.4 mg/kg-day. In the series on Canidae (subchronic, duration: 90 days, Dog Other, hematological), this molecule showed an NOAEL of 22.4 mg/kg-day.
Consider `O=[N+]([O-])/N=C1\NCCN1Cc1ccc(Cl)nc1` [Imidacloprid], for which the LD50 in the series on Anas platyrhynchos (acute, unspecified) was determined as 66 mg/kg-day; in the series on Rattus norvegicus (acute), 256 mg/kg-day; in the series on Apis mellifera (dermal), 0.081 µg/piece; in the series with Apis mellifera (duration: 48 hours, dermal), 0.081 µg/piece; in the series with Apis mellifera (duration: 48 hours, oral, unspecified), 0.0037 µg/piece; with Apis mellifera (duration: 120 hours, dermal), 0.0251 µg/piece. The molecule also came in with an LD50 in the series on Apis mellifera (oral, unspecified) of 0.0037 µg/piece. In addition, the NOAEL is 17 mg/kg-day with Rattus norvegicus (chronic); 5.7 mg/kg-day in the series with Rattus norvegicus (chronic, duration: 2 years, M, histopathology: nonneoplastic); 9.3 mg/kg-day in the series with Rattus norvegicus (subchronic, duration: 90 days, oral, histopathology: nonneoplastic); 9.3 mg/kg-day with Colinus virginianus (reproduction developmental); 7.8 mg/kg-day with Canidae (subchronic, duration: 90 days, Dog Other, clinical signs). In addition, the figures for the LC50 with Neomysis kadiakensis and with Oncorhynchus mykiss were 0.0341 µg/mL (≈ 0.133 µM) and > 83 µg/mL, respectively. The same molecule had an NOEL in the series with Colinus virginianus (short-term, oral, diet) of 29.4 mg/kg-day. Also, the NOEC was 1.8 mg/L in the series on Daphnia magna; < 2.5 µg/piece in the series with Apis mellifera (dermal); 9.02 mg/L in the series with Oncorhynchus mykiss (chronic/long-term, duration: 91 days, time to hatch).
As to `CNC(=O)Oc1cc(C)c(SC)c(C)c1` [Methiocarb], the LC50 in the series with Anas platyrhynchos (short-term, feed, mortality) was determined as 1070 mg/kg. In the series on Colinus virginianus (reproduction developmental, reproduction), the NOEC worked out at 4.51 mg/kg-day. The molecule also returned an LD50 in the series on Coturnix japonica of 5 mg/kg.
In the series on Homo sapiens, `CC(CCc1ccc(O)cc1)NCC(O)c1ccc(O)cc1.Cl` (stereo unspecified) [Ractopamine hydrochloride] had an NOEL of 0.067 mg/kg-day. Also, the NOAEL was 0.002 mg/kg-day in the series on Canidae (acute, M/F, Beagle, clinical signs) and 0.125 mg/kg-day in the series on Macaca mulatta.
A word on the LOAEL: it is the lowest tested level that showed an adverse finding. In the case of `CC(=O)OC[C@]12C[C@H](OC(=O)CC(C)C)C(C)=C[C@H]1O[C@H]1[C@H](O)[C@H](OC(C)=O)[C@@]2(C)[C@]12CO2` [T-2 toxin], the lowest observed adverse effect level (LOAEL) is 0.12 mg/kg-day in the series on Gallus gallus (short-term, duration: 24 days, oral, diet, F, reproduction); 0.04 mg/kg-day with Gallus gallus (subchronic, duration: 5 weeks, clinical signs); 0.3 mg/kg-day in the series on Bovidae; 40 µg/kg-day in the series with Anatidae; 48 µg/kg-day in the series with Meleagris sp.. Besides, the NOAEL in the series on Oryctolagus sp. came to 0.1 mg/kg-day; in the series on Ictalurus punctatus it was 13 µg/kg-day.
In the series with Aphidius rhopalosiphi [5], `COP(=O)(OC)C(O)C(Cl)(Cl)Cl` (stereo unspecified) [Trichlorfon] registered an LR50 of 0.519 g/ha. In the series on Tagia sp. (duration: 14 days), this molecule showed an LC50 of 140 mg/kg. In the series on Typhlodromus pyri [2], the LEL amounted to 1200 g/ha. In addition, in the series on Rattus norvegicus (acute, oral, F, mortality), the LD50 turned out to be 212 mg/kg-day. For the same molecule, the NOAEL in the series on Rattus norvegicus (chronic, oral, M) stood at 13.2 mg/kg-day.
